According to patent publication US9144591B2, “Transcription modulator compositions” (Academia Sinica, priority 2006, dated 2015):

Key:
[1] = system: AR in a complex with IKKα; conditions: 10 nM, five minutes, 22Rv/PSA36-103 cells
Source text: We investigated if IKKα or IKKβ could interact with activated AR in 22Rv/PSA36-103 cells after androgen stimulation.

[2] = system: PSA promoter (androgen-responsive promoter) in 22RvPSA36-103 cells; assay: PSA-luciferase reporter assay, induction by steroid hormones; format: cell-based, human; conditions: 20 hours; for PSA-luciferase activity stimulation: 10 nM, dose dependent, maximum
Experimental: The 22Rvl cell line was purchased from ATCC. Reporter plasmid (p5.7 kb-PSA-Luc) was constructed by inserting the 5.7 kb PSA promoter into pGL3 plasmid (Promega).
(§1) For luciferase activity assays, 8×10^4 22Rvl-derived cells were grown in 48-well multi-well plates. The cell culture medium was RPMI containing 5% charcoal coated dextran stripped fetal bovine serum (Hyclone). After the cells were grown for one day in culture, their growth medium was exchanged to include experimental or control compositions, as described below, and cell growth was continued for a further 20 hours. Cells were lysed by the addition of passive lysis buffer (Promega), then luciferase assays were performed using a luciferase assay system (Promega) and VICTOR^2 multilabel counter (PerkinElmer), and normalized to lysate protein as measured by a Coomassie (Bradford) Protein Assay Kit (Pierce).
The AR signaling pathway promotes the development of prostate cancer. Thus, we established a cell-based model to observe androgen-responsive promoter activity in human prostate cancer cells. […] 22RvPSA36-103 cells were incubated for 20 hours in the presence of an androgen.

[3] = system: androgen-responsive promoter activity in 22RvPSA36-103 cells; assay: Luciferase assay, inhibition of androgen-induced androgen-responsive promoter activity; format: cell-based, human; conditions: 20 hours
Experimental: as §1
The ability of the IKK inhibitors 15-deoxy-Δ^12,14-prostaglandin J2, prostaglandin A1, and wedelolactone to inhibit androgen-responsive promoter activity was tested using the above-described luciferase assay.
A tet operon-regulated H1-small hairpin RNA expression cassette was constructed and inserted into the pcDNA6tTR™ plasmid from Invitrogen (Carlsbad, Calif.). Each knockdown plasmid was transfected into 22RvPSA36-103 cells to produce stably transfected cell lines. The knockdown of IKKα or IKKβ in daughter cell lines was determined by immunoblotting. […] To induce RNAi-mediated knockdown, cells were grown in medium containing 1 μg/ml doxycycline as compared to vehicle control for 3 days. Subsequent treatment and assays were performed according to the procedure of the aforementioned luciferase assays.

22RvPSA36-103 cells = assay: Colony forming efficiency, crystal violet OD595, 22RvPSA36-103 cells; format: cell-based, human; conditions: 6 days, plus androgen
Experimental: Given that activation of the AR signaling pathway stimulates prostate cancer cell proliferation and our finding that IKKα is implicated in this pathway, we sought to determine if IKKα inhibition would reduce prostate cancer cell proliferation. To this end, the colony forming efficiency of 22Rv1 cells and 22RvPSA36-103 cells in the presence of an androgen plus or minus an IKK inhibitor was determined by growing 2×10^4 cells in 12-well multi-well plates for 6 days. The growth medium was replaced every three days. At the end of the growth period, cell colonies were stained with 0.1% crystal violet in phosphate buffer saline, dried, and photographed. Cellular retention of crystal violet was extracted with 20% acetic acid in water and measured at OD595 as a quantitative indicator of colony forming efficiency.

22Rv1 cells = assay: Colony forming efficiency, crystal violet OD595, 22Rv1 cells; format: cell-based, human; conditions: 6 days, plus androgen

C[C@]12CCC(=O)C[C@@H]1CC[C@@H]1[C@@H]2CC[C@]2(C)[C@@H](O)CC[C@@H]12 [5α-dihydrotestosterone]
Co-immunoprecipitation of the AR in a complex with IKKα [1]: detected
PSA-luciferase activity stimulation [2]: approximately 100 fold over baseline

CCCCC/C=C/C=C1/C(=O)C=C[C@@H]1C/C=C\CCCC(=O)O [15-deoxy-Δ^12,14-prostaglandin J2]
Inhibition of 5α-dihydrotestosterone-induced luciferase expression [3]: inhibited 5α-dihydrotestosterone-induced luciferase expression in a dose-dependent manner

C[C@]12CC[C@@H]3c4ccc(O)cc4CC[C@H]3[C@@H]1CC[C@@H]2O [17-β-estradiol]
Induction of PSA-luciferase expression [2]: failed to induce PSA-luciferase expression

CC(=O)[C@H]1CC[C@H]2[C@@H]3CCC4=CC(=O)CC[C@]4(C)[C@H]3CC[C@]12C [progesterone]
Induction of PSA-luciferase expression [2]: failed to induce PSA-luciferase expression

CCCCC[C@H](O)/C=C/[C@H]1C=CC(=O)[C@@H]1CCCCCCC(=O)O [prostaglandin A1]
Inhibition of 5α-dihydrotestosterone-induced luciferase expression [3]: inhibited 5α-dihydrotestosterone-induced luciferase expression in a dose-dependent manner

C[C@]12CC[C@H]3[C@@H](CCC4=CC(=O)CC[C@@]43C)[C@@H]1CC[C@@H]2O [testosterone]
PSA-luciferase activity stimulation [2]: approximately 100 fold over baseline

COc1cc(O)c2c(c1)oc(=O)c1c3cc(O)c(O)cc3oc21 [wedelolactone]
Inhibition of androgen-stimulated colony growth (22RvPSA36-103 cells): highly effective
Inhibition of 5α-dihydrotestosterone-induced luciferase expression [3]: inhibited 5α-dihydrotestosterone-induced luciferase expression in a dose-dependent manner
Inhibition of androgen-stimulated colony growth (22Rv1 cells): highly effective
